In ChEMBL document CHEMBL1287704, “Synthesis and biological evaluation of novel leonurine-SPRC conjugate as cardioprotective agents” (Bioorg Med Chem Lett, 2010):
The source made the active and inactive calls. The rule behind the calls is not given here.

Legend:
Assay type in all cases: functional, cell-based
[1] = Cardioprotective activity against hypoxia-induced neonatal rat ventricular myocytes damage assessed as increase in hydrogen sulfide level at 1 uM treated 12 hrs before hypoxia challenge measured after 5 hrs; conditions: Ventricular myocyte
Ventricular myocyte [2] = experiment: Cardioprotective activity against hypoxia-induced neonatal rat ventricular myocytes damage assessed as increased cell viability at 1 uM treated 12 hrs before hypoxia challenge measured after 5 hrs by MTT assay
[3] = Cardioprotective activity against hypoxia-induced neonatal rat ventricular myocytes damage assessed as decrease of LDH release at 1 uM treated 12 hrs before hypoxia challenge measured after 5 hrs; conditions: Ventricular myocyte
[4] = Cardioprotective activity against hypoxia-induced neonatal rat ventricular myocytes damage assessed as decrease of creatine kinase release at 1 uM treated 12 hrs before hypoxia challenge measured after 5 hrs; conditions: Ventricular myocyte
Ventricular myocyte [5] = experiment: Cardioprotective activity against hypoxia-induced neonatal rat ventricular myocytes damage assessed as increased cell viability at 0.1 uM treated 12 hrs before hypoxia challenge measured after 5 hrs by MTT assay
[6] = Cardioprotective activity against hypoxia-induced neonatal rat ventricular myocytes damage assessed as decrease of LDH release at 0.1 uM treated 12 hrs before hypoxia challenge measured after 5 hrs; conditions: Ventricular myocyte
[7] = Cardioprotective activity against hypoxia-induced neonatal rat ventricular myocytes damage assessed as decrease of creatine kinase release at 0.1 uM treated 12 hrs before hypoxia challenge measured after 5 hrs; conditions: Ventricular myocyte
[8] = Cardioprotective activity against hypoxia-induced neonatal rat ventricular myocytes damage assessed as increase in hydrogen sulfide level at 0.1 uM treated 12 hrs before hypoxia challenge measured after 5 hrs; conditions: Ventricular myocyte
[9] = Cardioprotective activity against hypoxia-induced neonatal rat ventricular myocytes damage assessed as increase in superoxide dismutase activity against 0.1 uM treated 12 hrs before hypoxia challenge measured after 5 hrs; conditions: Ventricular myocyte
[10] = Cardioprotective activity against hypoxia-induced neonatal rat ventricular myocytes damage assessed as decrease in malondialdehyde level at 0.1 uM treated 12 hrs before hypoxia challenge measured after 5 hrs; conditions: Ventricular myocyte
[11] = Antiapoptotic activity against hypoxia-induced neonatal rat ventricular myocytes damage assessed as decrease in nuclear condensation at 0.1 uM using Hoechst 33258 staining by fluorescence microscopy; conditions: Ventricular myocyte
[12] = Antiapoptotic activity against hypoxia-induced neonatal rat ventricular myocytes damage assessed as decrease in nuclei-shrunk at 0.1 uM using Hoechst 33258 staining by fluorescence microscopy; conditions: Ventricular myocyte
Ventricular myocyte [13] = experiment: Cardioprotective activity against hypoxia-induced neonatal rat ventricular myocytes damage assessed as increased cell viability at 10 uM treated 12 hrs before hypoxia challenge measured after 5 hrs by MTT assay
[14] = Cardioprotective activity against hypoxia-induced neonatal rat ventricular myocytes damage assessed as decrease of LDH release at 10 uM treated 12 hrs before hypoxia challenge measured after 5 hrs; conditions: Ventricular myocyte
[15] = Cardioprotective activity against hypoxia-induced neonatal rat ventricular myocytes damage assessed as decrease of creatine kinase release at 10 uM treated 12 hrs before hypoxia challenge measured after 5 hrs; conditions: Ventricular myocyte
[16] = Cardioprotective activity against hypoxia-induced neonatal rat ventricular myocytes damage assessed as increase in hydrogen sulfide level at 10 uM treated 12 hrs before hypoxia challenge measured after 5 hrs; conditions: Ventricular myocyte

Structure (SMILES)	Activity [1]	Activity (Ventricular myocyte [2])	Activity [3]	Activity [4]	Activity (Ventricular myocyte [5])	Activity [6]	Activity [7]	Activity [8]	Activity [9]	Activity [10]	Activity [11]	Activity [12]	Activity (Ventricular myocyte [13])	Activity [14]	Activity [15]	Activity [16]
COc1cc(C(=O)OCCCCNC(=N)N)cc(OC)c1O	inactive	Active	Active	Active	–	–	–	–	–	–	–	–	–	–	–	–
C#CCSC[C@H](N)C(=O)Oc1c(OC)cc(C(=O)OCCCCNC(=N)N)cc1OC	–	Active	Active	Active	Non-toxic	Active	Active	21.5 µmol/L	Active	Active	Active	Active	Active	Active	Active	–
C#CCSC[C@H](N)C(=O)O	–	–	–	–	–	–	–	–	–	–	–	–	Active	Active	Active	20.2 µmol/L
